Test results as given in patent publication US20050136040A1, “Control of gene expression using a complex of an oligonucleotide and a regulatory peptide” (Imperial College Innovations Limited, priority 2001, published 2005).
[5FU] = 5-fluoro-deoxyuracil base

Assays:
[1] = tested on: androgen receptor gene; experiment: RT-PCR of androgen receptor mRNA, LNCap cells treated with ARP-L218 and cyproterone acetate; type: cell-based, human; conditions: 3 days
Method: (§1) RT-PCR analysis of androgen receptor mRNA. After ethidium bromide staining the quantity of electrophoresed amplicons was determined in arbitrary units using a Labworks image reader.
ARP-L218 was prepared in phosphate buffer saline (PBS), 0.2 μm syringed filtered and used on day of test set-up.
(§2) LNCap cells were transfected with ARP-L218 using lipofectamine2000 (cationic activated dendrimer, InVitrogen life technologies) with/without antagonist. Various amounts of ARP-L218 were mixed with a fixed amount of lipofectamine2000 (3 μl) in a total volume of 100 μl serum free medium without antibiotics (OptiMEM). After 20 mins incubation at room temperature, the transfection mixture was added to cells at 70% confluency and cells were incubated for 3 days.
(§3) RNA was extracted and RT-PCR analysis of AR mRNA levels conducted as described above.

[2] = tested on: PSA; experiment: Secreted PSA by immunoassay in LnCap cells with or without R1881 (Example 2); type: cell-based, human; conditions: LnCap control cells (no or irrelevant oligonucleotide-peptide fusion), 72 hours
Method: In an example, the prostate cancer cell line LnCap is treated with the oligonucleotide-peptide fusion comprising a MAD1 or Sap18 peptide as described in Example 1. Transfected cells are optionally identified and/or isolated (for example using a GFP marker and FACS techniques) and are assayed for androgen receptor gene expression as well as for the classic prostate cancer marker PSA. For example, GFP-positive, FACS sorted cells were cultured in the presence or absence of the AR agonist R1881. After 72 hours, culture media were collected and the amount of the androgen-regulated protein PSA determined by immunoassay. Addition of R1881 results in an approximately 25-fold increase in levels of secreted PSA in control cells (with no oligonucleotide-peptide fusion, or an irrelevant oligonucleotide-peptide fusion).

[3] = tested on: androgen receptor gene; experiment: RT-PCR of androgen receptor mRNA, LNCap cells treated with ARP-L218 and R1881; type: cell-based, human; conditions: 3 days; for AR mRNA Percentage of control: vs PBS treated control
Method: as §1
The effect of ARP-L218 on androgen receptor gene expression with and without a synthetic androgen (R1881) was measured using the protocol outlined in the above section.
ARP-L218 was prepared in phosphate buffer saline (PBS), 0.2 μm syringed filtered and used on day of test set-up. R1881 (synthetic androgen) was purchased from Perkin Elmer, Catalogue number NLP005005MG.
as §2, with “agonist.” for “antagonist.”
as §3

[4] = tested on: Prostate specific antigens (PSA) protein levels; experiment: Total PSA in LNCap cell supernatants, chemiluminescent immunometric assay; type: cell-based, human; conditions: LNCap supernatant, 3 days
Method: Cells were incubated in the presence of R1881 for 3 days. PSA levels in the supernatants were measure by ELISA. Each column represent total prostate specific antigen (PSA).
Therefore, using the protocols described in Example 8 ARP-L218 was transfected into LNCap cells (GET/LNC/W39/P6) with Lipofectamine 2000 (InVitrogen) with or without R1881 (Perkin Elmer), a synthetic androgen, for 3 days, after which the supernatant were harvested for quantitation of total PSA protein at the Pathology Centre, Hammersrnith Hospital, London, U.K.
PSA measurements were carried out by a chemiluminescent labelled immunometric assay using an automated immunoassay analyser (Abbott Architect Immunoassay Analyser).

[5] = tested on: interferon stimulated response element (IRE) of the human 6-16 gene; experiment: Interferon-induced EGFP expression by FACS in modified HT1080 cells (C8); type: cell-based; conditions: for Interferon-induced GFP expression: +INF 300 units/ml for one day
Method: Cells habouring EGFP under the control of the interferon stimulated response element (ISRE) of the human 6-16 gene were transiently transfected with different compounds. Cells were then treated with 300 units/ml of IFN for one day and analysed by FACS for the GFP expression. • a) Parental cell line, no treatment • b) Cells expressing the stably transfected construct (C8), no treatment • c) C8 treated with interferon (+INF) • d) C8 transfected with 500 pm TFO, +INF • e) C8 specific TFO 1000 pM, +INF • f) C8, GeneICE1 500 pM, +INF • g) C8, GeneICE 2 500 pM, +INF • h) C8, unspecific control TFO 500 pM, +INF • i) C8, unspecific control TFO 1000 pM, +INF
These cells have a stably incorporated gene expressing EGFP under the control of the interferon stimulated response element (IRE) of the human 6-16 gene.
For the following data, cells were transiently transfected with different compounds using standard lipofectamine protocols. Cells were then treated with 300 units/ml of interferon (INF) for one day and analysed by FACS for the GFP expression.

What does the source list for CC(=O)O[C@]1(C(C)=O)CC[C@H]2[C@@H]3C=C(Cl)C4=CC(=O)[C@@H]5C[C@@H]5[C@]4(C)[C@H]3CC[C@@]21C [Cyproterone Acetate, Cyproterone acetate]?
androgen receptor gene expression levels (in words) [1]: can act to reduce AR gene expression; AR band quantitation ([1]; Cyproterone Acetate 0.1 nM): 2357; AR mRNA % of control ([1]; Cyproterone Acetate 0.1 nM): 54.0%; AR band quantitation ([1]; Cyproterone Acetate 10 nM): 2401; AR mRNA % of control ([1]; Cyproterone Acetate 10 nM): 51.5%; AR band quantitation ([1]; Cyproterone Acetate 1 uM): 1868; AR mRNA % of control ([1]; Cyproterone Acetate 1 uM): 47.8%; AR band quantitation ([1]; Cyproterone Acetate 10 uM): 1568

With C[C@]1(O)CC[C@H]2[C@@H]3CCC4=CC(=O)CCC4=C3C=C[C@@]21C [R1881] as the compound, how does the “increase in levels of secreted PSA on addition of R1881” value [2] read?
Its value is “approximately 25 fold”.

What about the “androgen receptor gene expression levels (in words)” value [3] of the same compound?
The value was “can act to reduce AR gene expression”.

And the “AR Ratio/beta-actin” value ([3]; R1881 0.01 nM)?
Its value is 0.237.

And the AR band quantitation ([3]; R1881 0.01 nM)?
Its AR band quantitation is 2083.

And the “AR band quantitation Average” value ([3]; R1881 0.01 nM)?
Its value is 2083.

And the “AR mRNA Percentage of control” value ([3]; R1881 0.01 nM)?
Its value is 71.73%.

And the “AR Ratio/beta-actin” value ([3]; R1881 1 nM)?
Its value is 0.103.

What about the AR band quantitation ([3]; R1881 1 nM) of the same compound?
The AR band quantitation was 1471.

And the “AR band quantitation Average” value ([3]; R1881 1 nM)?
Its value is 1471.

And the “AR mRNA Percentage of control” value ([3]; R1881 1 nM)?
Its value is 31.29%.

And the “AR Ratio/beta-actin” value ([3]; R1881 100 nM)?
The value was 0.116.

And the AR band quantitation ([3]; R1881 100 nM)?
The AR band quantitation was 1455.

And the “AR band quantitation Average” value ([3]; R1881 100 nM)?
The value was 1455.

And the “AR mRNA Percentage of control” value ([3]; R1881 100 nM)?
Its value is 35.17%.

What about the “AR Ratio/beta-actin” value ([3]; R1881 1 uM) of the same compound?
The value was 0.165.

What about the AR band quantitation ([3]; R1881 1 uM) of the same compound?
Its AR band quantitation is 1388.

And the “AR band quantitation Average” value ([3]; R1881 1 uM)?
Its value is 1388.

What about the “AR mRNA Percentage of control” value ([3]; R1881 1 uM) of the same compound?
The value was 49.92%.

And the “effect on PSA levels (in words)” value [4]?
The value was “show an increase in PSA levels”.

What about the “Total PSA” value ([4]; R1881 0.01 nM) of the same compound?
Its value is 372 ng/mL.

What about the “Total PSA” value ([4]; R1881 100 nM) of the same compound?
Its value is 1980 ng/mL.

Which results are given for “specific TFO: IRE TFO (5′) GGGUGGTGGGGTTGTGTT (3′), U = 5-fluro-deoxyuracil, without peptide (DNA, [5FU] at 4, backbone not given here)”?
Interferon-induced GFP expression ([5]; 500 pM): 53%; Interferon-induced GFP expression ([5]; 1000 pM): 63%; average repression of INF induced GFP expression ([5]; +INF, average over the conditions of Table 4): 42%
